Results on one compound are retold here after article PMC5218480 (PLoS ONE, 2017).

This assay deals with MV-4-11 cells. The experiment in a line: Gene expression microarray analysis (Affymetrix PrimeView) and GSEA. To be noted: ProbeSet 11717702_a_at; LIST D. Type of assay: cell-based, human. Also on record: RFU PODN (11730768_x_at) / Fold change /veh PODN (11730768_x_at) / RFU LINC00158 (11744669_a_at) / Fold change /veh LINC00158 (11744669_a_at) / RFU DUSP10 (11751237_a_at) / Fold change /veh DUSP10 (11751237_a_at) / RFU ID3 (11757404_x_at) / Fold change /veh ID3 (11757404_x_at) / RFU PLEKHG5 (11737974_s_at) / Fold change /veh PLEKHG5 (11737974_s_at) / RFU LRRC4B (11730491_at) / Fold change /veh LRRC4B (11730491_at) / RFU GIMAP4 (11747438_a_at) / Fold change /veh GIMAP4 (11747438_a_at) / RFU KRT8 (11758183_x_at) / Fold change /veh KRT8 (11758183_x_at) / RFU CNN1 (11734310_a_at) / Fold change /veh CNN1 (11734310_a_at) / RFU VPS37D (11726825_at) / Fold change /veh VPS37D (11726825_at) / RFU C10orf10 (11716522_x_at) / Fold change /veh C10orf10 (11716522_x_at) / RFU KIR2DL2 /// KIR2DL4 /// KIR2DL5A /// KIR2DL5B /// KIR2DS1 /// KIR2DS2 /// KIR2DS3 /// KIR2DS4 /// KIR3DL3 /// KIR3DL3 /// KIR3DS1 (11738374_at) / Fold change /veh KIR2DL2 /// KIR2DL4 /// KIR2DL5A /// KIR2DL5B /// KIR2DS1 /// KIR2DS2 /// KIR2DS3 /// KIR2DS4 /// KIR3DL3 /// KIR3DL3 /// KIR3DS1 (11738374_at) / RFU C1QL1 (11718748_at) / Fold change /veh C1QL1 (11718748_at) / RFU TMPRSS4 (11747572_a_at) / Fold change /veh TMPRSS4 (11747572_a_at) / RFU HAMP (11756126_x_at) / Fold change /veh HAMP (11756126_x_at) / RFU RNFT2 (11725882_a_at) / Fold change /veh RNFT2 (11725882_a_at) / RFU NR4A2 (11747474_a_at) / Fold change /veh NR4A2 (11747474_a_at) / RFU ABCC12 (11746883_a_at) / Fold change /veh ABCC12 (11746883_a_at) / RFU TMEM136 (11760407_x_at) / Fold change /veh TMEM136 (11760407_x_at) / RFU CLDN22 /// WWC2 (11732394_at) / Fold change /veh CLDN22 /// WWC2 (11732394_at) / RFU HLA-DPB1 (11760878_x_at) / Fold change /veh HLA-DPB1 (11760878_x_at) / RFU SPINT1 (11716480_a_at) / Fold change /veh SPINT1 (11716480_a_at) / RFU GAP43 (11754022_s_at) / Fold change /veh GAP43 (11754022_s_at) / RFU A4GNT (11735810_at) / Fold change /veh A4GNT (11735810_at) / RFU PRB3 (11715151_x_at) / Fold change /veh PRB3 (11715151_x_at) / RFU TUBB4B (11761932_at) / Fold change /veh TUBB4B (11761932_at) / RFU CAPN14 (11732068_a_at) / Fold change /veh CAPN14 (11732068_a_at) / RFU TMCC2 (11721928_a_at) / Fold change /veh TMCC2 (11721928_a_at) / RFU IRGQ (11745062_a_at) / Fold change /veh IRGQ (11745062_a_at) / RFU FAM174B (11720279_a_at) / Fold change /veh FAM174B (11720279_a_at) / RFU TMPRSS4 (11748680_a_at) / Fold change /veh TMPRSS4 (11748680_a_at) / RFU FAM212B (11763350_a_at) / Fold change /veh FAM212B (11763350_a_at) / RFU PLEKHG5 (11743358_a_at) / Fold change /veh PLEKHG5 (11743358_a_at) / RFU ZSCAN30 (11745921_a_at) / Fold change /veh ZSCAN30 (11745921_a_at) / RFU CMKLR1 (11741424_a_at) / Fold change /veh CMKLR1 (11741424_a_at) / RFU LOC101060620 /// MAPK8IP1 (11723275_at) / Fold change /veh LOC101060620 /// MAPK8IP1 (11723275_at) / RFU SPTSSB (11747773_x_at) / Fold change /veh SPTSSB (11747773_x_at) / RFU PRSS12 (11739890_at) / Fold change /veh PRSS12 (11739890_at) / RFU BIN1 (11741810_x_at) / Fold change /veh BIN1 (11741810_x_at) / RFU WNT11 (11732464_a_at) / Fold change /veh WNT11 (11732464_a_at) / RFU C10orf10 (11716521_a_at) / Fold change /veh C10orf10 (11716521_a_at) / RFU C5orf56 (11738089_at) / Fold change /veh C5orf56 (11738089_at) / RFU CYB561 (11721691_x_at) / Fold change /veh CYB561 (11721691_x_at) / RFU ANKRD19P (11752326_a_at) / Fold change /veh ANKRD19P (11752326_a_at) / RFU OR2T12 /// OR2T33 /// OR2T8 (11738714_s_at) / Fold change /veh OR2T12 /// OR2T33 /// OR2T8 (11738714_s_at) / RFU VCAN (11748164_a_at) / Fold change /veh VCAN (11748164_a_at) / RFU JSRP1 (11732532_at) / Fold change /veh JSRP1 (11732532_at) / RFU KRTAP10-11 (11738290_x_at) / Fold change /veh KRTAP10-11 (11738290_x_at) / RFU MYO3A (11730013_a_at) / Fold change /veh MYO3A (11730013_a_at) / RFU EBF3 (11725865_a_at) / Fold change /veh EBF3 (11725865_a_at) / RFU CAMK2N1 (11719241_x_at) / Fold change /veh CAMK2N1 (11719241_x_at) / RFU C5orf56 (11738088_a_at) / Fold change /veh C5orf56 (11738088_a_at) / RFU OLFML3 (11715873_a_at) / Fold change /veh OLFML3 (11715873_a_at) / RFU LOC100653217 /// NTM (11731650_a_at) / Fold change /veh LOC100653217 /// NTM (11731650_a_at) / RFU MAPK11 (11762145_a_at) / Fold change /veh MAPK11 (11762145_a_at) / RFU FIZ1 (11724087_x_at) / Fold change /veh FIZ1 (11724087_x_at) / RFU OASL (11726364_x_at) / Fold change /veh OASL (11726364_x_at) / RFU SOX15 (11748057_x_at) / Fold change /veh SOX15 (11748057_x_at) / RFU CD79A (11719716_a_at) / Fold change /veh CD79A (11719716_a_at) / RFU HIST1H1D (11736915_at) / Fold change /veh HIST1H1D (11736915_at) / RFU CASKIN2 (11723855_a_at) / Fold change /veh CASKIN2 (11723855_a_at) / RFU LOC730098 (11760151_x_at) / Fold change /veh LOC730098 (11760151_x_at) / RFU OR4N2 (11742367_at) / Fold change /veh OR4N2 (11742367_at) / RFU PRRT2 (11749266_a_at) / Fold change /veh PRRT2 (11749266_a_at) / RFU SNX32 (11753110_a_at) / Fold change /veh SNX32 (11753110_a_at) / RFU CDHR5 (11726645_a_at) / Fold change /veh CDHR5 (11726645_a_at) / RFU RCAN1 (11760418_a_at) / Fold change /veh RCAN1 (11760418_a_at) / RFU FAM167A (11723789_a_at) / Fold change /veh FAM167A (11723789_a_at) / RFU FAM26E (11764081_at) / Fold change /veh FAM26E (11764081_at) / RFU ISYNA1 (11749810_s_at) / Fold change /veh ISYNA1 (11749810_s_at) / RFU ACY1 (11761880_at) / Fold change /veh ACY1 (11761880_at) / RFU 11764098_at / Fold change /veh 11764098_at / RFU SAMD14 (11745864_x_at) / Fold change /veh SAMD14 (11745864_x_at) / RFU NPB (11741838_a_at) / Fold change /veh NPB (11741838_a_at) / RFU TMPRSS6 (11731388_a_at) / Fold change /veh TMPRSS6 (11731388_a_at) / RFU KRTAP10-2 (11738614_at) / Fold change /veh KRTAP10-2 (11738614_at) / RFU ARHGAP8 /// PRR5-ARHGAP8 (11727945_x_at) / Fold change /veh ARHGAP8 /// PRR5-ARHGAP8 (11727945_x_at) / RFU KRTAP5-7 /// NADSYN1 (11734609_at) / Fold change /veh KRTAP5-7 /// NADSYN1 (11734609_at) / RFU RASL12 (11751679_a_at) / Fold change /veh RASL12 (11751679_a_at) / RFU CDKN2B (11736163_a_at) / Fold change /veh CDKN2B (11736163_a_at) / RFU PRF1 (11729649_at) / Fold change /veh PRF1 (11729649_at) / RFU, ZNF638 /// ZNF638-IT1 / Fold change vs veh, ZNF638 /// ZNF638-IT1 / RFU, PANK3 / Fold change vs veh, PANK3 / RFU, SH3YL1 / Fold change vs veh, SH3YL1 / RFU, ZEB2 / Fold change vs veh, ZEB2 / RFU, NRIP1 / Fold change vs veh, NRIP1 / RFU, PTTG1IP / Fold change vs veh, PTTG1IP / RFU, CAPN2 / Fold change vs veh, CAPN2 / RFU, MED14 / Fold change vs veh, MED14 / RFU, SNORA58 / Fold change vs veh, SNORA58 / RFU, C1orf63 / Fold change vs veh, C1orf63 / RFU, LRRFIP1 / Fold change vs veh, LRRFIP1 / RFU, NDUFAF7 / Fold change vs veh, NDUFAF7 / RFU, SLC12A2 / Fold change vs veh, SLC12A2 / RFU, IBTK / Fold change vs veh, IBTK / RFU, ESF1 / Fold change vs veh, ESF1 / Fold change vs veh, TMEM50B / RFU, TAOK1 / Fold change vs veh, TAOK1 / RFU, ACBD3 / Fold change vs veh, ACBD3 / RFU, TMA16 / Fold change vs veh, TMA16 / RFU, RWDD3 / Fold change vs veh, RWDD3 / RFU, BCAT1 / Fold change vs veh, BCAT1 / RFU, EDEM3 / Fold change vs veh, EDEM3 / RFU, TMEM33 / Fold change vs veh, TMEM33 / RFU, WDR75 / Fold change vs veh, WDR75 / RFU, AHCTF1 / Fold change vs veh, AHCTF1 / RFU, TFRC / Fold change vs veh, TFRC / RFU, ZDHHC17 / Fold change vs veh, ZDHHC17 / RFU, NOM1 / Fold change vs veh, NOM1 / RFU, ARL8B / Fold change vs veh, ARL8B / RFU, ZBTB11 / Fold change vs veh, ZBTB11 / RFU, TAMM41 / Fold change vs veh, TAMM41 / RFU, KIAA1704 /// LOC100996395 / Fold change vs veh, KIAA1704 /// LOC100996395 / RFU, ING1 / Fold change vs veh, ING1 / RFU, TRMT61B / Fold change vs veh, TRMT61B / RFU, FUBP3 / Fold change vs veh, FUBP3 / RFU, TP53 / Fold change vs veh, TP53 / RFU, TNKS2 / Fold change vs veh, TNKS2 / RFU, ZFP14 / Fold change vs veh, ZFP14 / RFU, ACTR2 / Fold change vs veh, ACTR2 / RFU, PPP3R1 / Fold change vs veh, PPP3R1 / RFU, PIK3R1 / Fold change vs veh, PIK3R1 / RFU, HNRNPA1 / Fold change vs veh, HNRNPA1 / RFU, RNF170 / Fold change vs veh, RNF170 / RFU, ZNF28 / Fold change vs veh, ZNF28 / RFU, RNGTT / Fold change vs veh, RNGTT / RFU, OGT / Fold change vs veh, OGT / RFU, BRD1 / Fold change vs veh, BRD1 / RFU, MARS / Fold change vs veh, MARS / RFU, ZNF655 / Fold change vs veh, ZNF655 / RFU, FAHD1 / Fold change vs veh, FAHD1 / RFU, BDP1 / Fold change vs veh, BDP1 / RFU, LRRCC1 / Fold change vs veh, LRRCC1 / RFU, ARID1A / Fold change vs veh, ARID1A / RFU, ZNF146 / Fold change vs veh, ZNF146 / RFU, ZNF330 / Fold change vs veh, ZNF330 / RFU, GPN3 / Fold change vs veh, GPN3 / RFU, C9orf123 / Fold change vs veh, C9orf123 / RFU, N4BP2L2 / Fold change vs veh, N4BP2L2 / RFU, ARFIP1 / Fold change vs veh, ARFIP1 / RFU, FAM179B / Fold change vs veh, FAM179B / RFU, BCL10 / Fold change vs veh, BCL10 / RFU, UHRF1BP1L / Fold change vs veh, UHRF1BP1L / RFU, BET1 / Fold change vs veh, BET1 / RFU, CNOT2 / Fold change vs veh, CNOT2 / RFU, ZNF268 / Fold change vs veh, ZNF268 / Fold change vs veh, ZNF507 / RFU, DGCR2 / Fold change vs veh, DGCR2 / RFU, WDSUB1 / Fold change vs veh, WDSUB1 / Fold change vs veh, HSP90B1 /// MIR3652 / RFU, ADSS / Fold change vs veh, ADSS / RFU, GK / Fold change vs veh, GK / RFU, ZNF148 / Fold change vs veh, ZNF148 / RFU, TAF9 / Fold change vs veh, TAF9 / RFU, SLC1A5 / Fold change vs veh, SLC1A5 / RFU, SLMO2 / Fold change vs veh, SLMO2 / RFU, ABCC4 / Fold change vs veh, ABCC4 / RFU, LOC101060439 /// RAP1B / Fold change vs veh, LOC101060439 /// RAP1B / RFU, RFX7 / Fold change vs veh, RFX7 / RFU, GTPBP10 / Fold change vs veh, GTPBP10 / RFU, CNEP1R1 / Fold change vs veh, CNEP1R1 / RFU, BIVM-ERCC5 /// ERCC5 / Fold change vs veh, BIVM-ERCC5 /// ERCC5 / RFU, ILF3 / Fold change vs veh, ILF3 / RFU 11762660_at / Fold change /veh 11762660_at / RFU VCAN (11757783_s_at) / Fold change /veh VCAN (11757783_s_at) / RFU DDX43 (11728927_at) / Fold change /veh DDX43 (11728927_at) / RFU KRT8 (11758188_x_at) / Fold change /veh KRT8 (11758188_x_at) / RFU NKD1 (11759106_at) / Fold change /veh NKD1 (11759106_at) / RFU SRD5A1 (11742802_a_at) / Fold change /veh SRD5A1 (11742802_a_at) / RFU TPSAB1 /// TPSB2 (11721975_s_at) / Fold change /veh TPSAB1 /// TPSB2 (11721975_s_at) / RFU GSTM3 (11746129_a_at) / Fold change /veh GSTM3 (11746129_a_at) / RFU IL23R (11737362_x_at) / Fold change /veh IL23R (11737362_x_at) / RFU TMEM51 (11727254_a_at) / Fold change /veh TMEM51 (11727254_a_at) / RFU PIWIL2 (11732686_x_at) / Fold change /veh PIWIL2 (11732686_x_at) / RFU ORM1 (11744905_x_at) / Fold change /veh ORM1 (11744905_x_at) / RFU CCDC152 (11743942_at) / Fold change /veh CCDC152 (11743942_at) / RFU ECM1 (11717891_a_at) / Fold change /veh ECM1 (11717891_a_at) / RFU IL23R (11748794_a_at) / Fold change /veh IL23R (11748794_a_at) / RFU TNFAIP8L3 (11732012_x_at) / Fold change /veh TNFAIP8L3 (11732012_x_at) / RFU MBOAT4 (11741988_at) / Fold change /veh MBOAT4 (11741988_at) / RFU 11764193_at / Fold change /veh 11764193_at / RFU TMEM53 (11763286_at) / Fold change /veh TMEM53 (11763286_at) / RFU MAGEB2 (11727129_at) / Fold change /veh MAGEB2 (11727129_at) / RFU TMEM200A (11744735_a_at) / Fold change /veh TMEM200A (11744735_a_at) / RFU CCDC152 (11751479_a_at) / Fold change /veh CCDC152 (11751479_a_at) / RFU FAM211A (11726209_a_at) / Fold change /veh FAM211A (11726209_a_at) / RFU RGS16 (11746705_a_at) / Fold change /veh RGS16 (11746705_a_at) / RFU VCAN (11755009_s_at) / Fold change /veh VCAN (11755009_s_at) / RFU RHOB (11743442_s_at) / Fold change /veh RHOB (11743442_s_at) / RFU RGS16 (11720943_a_at) / Fold change /veh RGS16 (11720943_a_at) / RFU RGS16 (11720944_at) / Fold change /veh RGS16 (11720944_at) / RFU, VPS4B / Fold change vs veh, VPS4B / RFU, CREB1 / Fold change vs veh, CREB1 / RFU, DNAJC13 / Fold change vs veh, DNAJC13 / RFU, GNAQ / Fold change vs veh, GNAQ / RFU, CDK5R1 / Fold change vs veh, CDK5R1 / RFU, ZRANB3 / Fold change vs veh, ZRANB3 / RFU, CUL4A / Fold change vs veh, CUL4A / RFU, CCNY / Fold change vs veh, CCNY / RFU, UFL1 / Fold change vs veh, UFL1 / RFU, COG3 / Fold change vs veh, COG3 / RFU, DIAPH2 / Fold change vs veh, DIAPH2 / RFU, SKA2 / Fold change vs veh, SKA2 / RFU, AFF3 / Fold change vs veh, AFF3 / RFU, LMF1 / Fold change vs veh, LMF1 / RFU, IPO11 / Fold change vs veh, IPO11 / RFU, DFFB / Fold change vs veh, DFFB / RFU, FOXP1 / Fold change vs veh, FOXP1 / RFU, CARD8 / Fold change vs veh, CARD8 / RFU, STRN3 / Fold change vs veh, STRN3 / RFU, ADK / Fold change vs veh, ADK / RFU, RASSF2 / Fold change vs veh, RASSF2 / RFU, WIPF1 / Fold change vs veh, WIPF1 / RFU, LARP1B / Fold change vs veh, LARP1B / RFU, RASA1 / Fold change vs veh, RASA1 / RFU, RB1 / Fold change vs veh, RB1 / RFU, PPFIA1 / Fold change vs veh, PPFIA1 / RFU, MAT2A / Fold change vs veh, MAT2A / RFU, CCT5 / Fold change vs veh, CCT5 / RFU, WDR92 / Fold change vs veh, WDR92 / RFU, CUX1 / Fold change vs veh, CUX1 / RFU, TTC7A / Fold change vs veh, TTC7A / RFU, TMEM135 / Fold change vs veh, TMEM135 / RFU, DEPTOR / Fold change vs veh, DEPTOR / RFU, CPM / Fold change vs veh, CPM / RFU, DNAJB6 / Fold change vs veh, DNAJB6 / RFU, CACNA2D3 / Fold change vs veh, CACNA2D3 / RFU, DTX4 / Fold change vs veh, DTX4 / RFU, TFCP2 / Fold change vs veh, TFCP2 / RFU, GMCL1 /// GMCL1P1 / Fold change vs veh, GMCL1 /// GMCL1P1 / RFU, AEBP2 / Fold change vs veh, AEBP2 / RFU, SNHG1 /// SNORD22 /// SNORD25 /// SNORD26 /// SNORD27 /// SNORD28 /// SNORD29 /// SNORD31 / Fold change vs veh, SNHG1 /// SNORD22 /// SNORD25 /// SNORD26 /// SNORD27 /// SNORD28 /// SNORD29 /// SNORD31 / Fold change (Aza/veh), C12orf56 (ProbeSet 11735607_a_at) / Fold change (ACY-1035/veh), C12orf56 (ProbeSet 11735607_a_at) / Fold change (Aza/veh), FGFR1OP (ProbeSet 11751329_s_at) / Fold change (ACY-1035/veh), FGFR1OP (ProbeSet 11751329_s_at) / Fold change (Aza/veh), VPS36 (ProbeSet 11739960_a_at) / Fold change (ACY-1035/veh), VPS36 (ProbeSet 11739960_a_at) / RFU SYPL1 (11715823_x_at) / Fold change /veh SYPL1 (11715823_x_at) / RFU IGFBP7 (11715501_s_at) / Fold change /veh IGFBP7 (11715501_s_at) / RFU REEP3 (11722064_at) / Fold change /veh REEP3 (11722064_at) / RFU IGLL1 (11728026_x_at) / Fold change /veh IGLL1 (11728026_x_at): dose or concentration left out as unconfirmed.

For `Nc1ncn([C@@H]2O[C@H](CO)[C@@H](O)[C@H]2O)c(=O)n1` [azacitidine], the “RFU, RB1” value is 184.53 RFU.
